The results in this text go back to patent US20240376121A1, “COMPOUNDS AND USES THEREOF” (Foghorn Therapeutics Inc., priority 2021, published 2024).

In assay [1] the target is T1, HiBit-BRM fusion protein (Homo sapiens, UniProt P51531).
T1 construct: expressed in transfected cells
Nature of the assay: HiBiT-BRM cell-based degradation assay (Nano-Glo HiBiT Lytic Detection). The note with it: stable HeLa cell line expressing HiBiT-BRM, 24 h incubation; for BRM HiBit Degradation Maximum (%): top dose 30 μM; for DC50: read-out: BRM HiBit Degradation IC50. As to the method:
(§1) Procedure: A stable HeLa cell line expressing HiBiT-BRM was generated. On day 0, 5000 cells were seeded in 40 μL of media into each well of 384-well cell culture plates. On day 1, cells were treated with 120 nL DMSO or 120 nL of 3-fold serially DMSO-diluted compounds (10 points in duplicate with 30 μM as final top dose). Subsequently plates were incubated for 24 h in a standard tissue culture incubator and equilibrated at room temperature for 15 minutes. Nano-Glo HiBiT Lytic Detection System (Promega N3050) reagent was freshly prepared and 20 ul was added to each well. Upon addition of this LgBit-containing reagent, the HiBiT and LgBiT proteins associate to form the luminescent NanoBiT luciferase. The plates were shaken for 10 minutes at room temperature and the bioluminescence read using an EnVision plate reader (PerkinElmer).
(§2) The degradation % was calculated using the following formula: % degradation=100%−100%×(LumSample−LumLC)/(LumHC−LumLC). DMSO treated cells are employed as High Control (HC) and 2 μM of a known BRM/BRG1 degrader standard treated cells are employed as Low Control (LC).
In general terms: The HiBiT peptide binds its large partner to form an active luciferase.

The target in assay [2] is T2, HiBit-BRG1 fusion protein (Homo sapiens, UniProt P51532).
T2 construct: expressed in transfected cells
Nature of the assay: HiBiT-BRG1 cell-based degradation assay (Nano-Glo HiBiT Lytic Detection). The note with it: stable HeLa cell line expressing HiBit-BRG1 and LgBit, 24 h incubation; for Dmax: top dose 30 μM, read-out: BRG1 HiBit Degradation Maximum (%); for DC50: read-out: BRMG1 HiBit Degradation IC50. As to the method:
as §1
For measurement of BRG1 degradation, a stable HeLa cell line expressing HiBit-BRG1 and LgBit was generated. The same protocol as above was then followed.
as §2

T1 sequence (P51531 whole entry, the tested form may be a part): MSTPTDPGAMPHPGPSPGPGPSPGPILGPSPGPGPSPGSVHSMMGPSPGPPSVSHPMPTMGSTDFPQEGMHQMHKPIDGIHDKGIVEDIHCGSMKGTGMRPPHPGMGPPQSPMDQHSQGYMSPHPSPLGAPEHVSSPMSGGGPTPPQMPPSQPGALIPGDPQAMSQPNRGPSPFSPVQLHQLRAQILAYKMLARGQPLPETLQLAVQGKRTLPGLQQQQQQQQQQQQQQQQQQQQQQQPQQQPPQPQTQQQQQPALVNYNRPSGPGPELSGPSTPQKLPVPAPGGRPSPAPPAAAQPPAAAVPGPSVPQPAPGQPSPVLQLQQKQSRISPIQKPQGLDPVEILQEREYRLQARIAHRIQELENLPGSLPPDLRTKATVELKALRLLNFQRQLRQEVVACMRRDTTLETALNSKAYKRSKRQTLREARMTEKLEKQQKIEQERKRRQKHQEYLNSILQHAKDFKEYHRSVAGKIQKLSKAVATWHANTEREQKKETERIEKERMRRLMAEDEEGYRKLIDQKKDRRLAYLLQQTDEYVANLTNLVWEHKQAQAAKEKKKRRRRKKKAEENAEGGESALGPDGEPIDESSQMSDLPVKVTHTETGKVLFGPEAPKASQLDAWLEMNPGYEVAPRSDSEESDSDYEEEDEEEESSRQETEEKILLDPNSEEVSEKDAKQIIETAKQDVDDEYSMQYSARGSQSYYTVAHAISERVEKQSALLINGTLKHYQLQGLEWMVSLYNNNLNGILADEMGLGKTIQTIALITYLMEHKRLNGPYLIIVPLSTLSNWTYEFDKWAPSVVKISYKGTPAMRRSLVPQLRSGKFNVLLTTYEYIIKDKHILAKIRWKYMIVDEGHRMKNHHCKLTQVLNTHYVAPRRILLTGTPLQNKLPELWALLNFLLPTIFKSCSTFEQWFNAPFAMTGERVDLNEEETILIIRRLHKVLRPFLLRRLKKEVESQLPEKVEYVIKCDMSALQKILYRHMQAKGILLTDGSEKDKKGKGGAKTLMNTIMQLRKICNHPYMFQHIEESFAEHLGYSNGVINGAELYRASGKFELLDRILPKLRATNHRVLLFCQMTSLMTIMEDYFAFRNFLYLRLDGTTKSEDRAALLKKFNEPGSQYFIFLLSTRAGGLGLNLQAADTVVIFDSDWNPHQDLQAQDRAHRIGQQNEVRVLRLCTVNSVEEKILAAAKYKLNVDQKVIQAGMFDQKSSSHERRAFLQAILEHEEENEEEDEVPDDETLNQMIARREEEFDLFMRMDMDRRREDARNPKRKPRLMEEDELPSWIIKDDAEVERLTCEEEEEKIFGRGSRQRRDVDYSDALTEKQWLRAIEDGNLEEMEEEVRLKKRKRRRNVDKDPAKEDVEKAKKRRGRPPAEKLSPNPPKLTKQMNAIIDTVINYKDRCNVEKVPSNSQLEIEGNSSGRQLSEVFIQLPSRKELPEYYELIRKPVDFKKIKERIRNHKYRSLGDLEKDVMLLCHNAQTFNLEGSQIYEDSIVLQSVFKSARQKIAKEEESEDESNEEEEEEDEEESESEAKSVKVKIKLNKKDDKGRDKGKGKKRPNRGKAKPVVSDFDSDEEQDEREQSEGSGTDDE
T2 sequence (P51532 whole entry, the tested form may be a part): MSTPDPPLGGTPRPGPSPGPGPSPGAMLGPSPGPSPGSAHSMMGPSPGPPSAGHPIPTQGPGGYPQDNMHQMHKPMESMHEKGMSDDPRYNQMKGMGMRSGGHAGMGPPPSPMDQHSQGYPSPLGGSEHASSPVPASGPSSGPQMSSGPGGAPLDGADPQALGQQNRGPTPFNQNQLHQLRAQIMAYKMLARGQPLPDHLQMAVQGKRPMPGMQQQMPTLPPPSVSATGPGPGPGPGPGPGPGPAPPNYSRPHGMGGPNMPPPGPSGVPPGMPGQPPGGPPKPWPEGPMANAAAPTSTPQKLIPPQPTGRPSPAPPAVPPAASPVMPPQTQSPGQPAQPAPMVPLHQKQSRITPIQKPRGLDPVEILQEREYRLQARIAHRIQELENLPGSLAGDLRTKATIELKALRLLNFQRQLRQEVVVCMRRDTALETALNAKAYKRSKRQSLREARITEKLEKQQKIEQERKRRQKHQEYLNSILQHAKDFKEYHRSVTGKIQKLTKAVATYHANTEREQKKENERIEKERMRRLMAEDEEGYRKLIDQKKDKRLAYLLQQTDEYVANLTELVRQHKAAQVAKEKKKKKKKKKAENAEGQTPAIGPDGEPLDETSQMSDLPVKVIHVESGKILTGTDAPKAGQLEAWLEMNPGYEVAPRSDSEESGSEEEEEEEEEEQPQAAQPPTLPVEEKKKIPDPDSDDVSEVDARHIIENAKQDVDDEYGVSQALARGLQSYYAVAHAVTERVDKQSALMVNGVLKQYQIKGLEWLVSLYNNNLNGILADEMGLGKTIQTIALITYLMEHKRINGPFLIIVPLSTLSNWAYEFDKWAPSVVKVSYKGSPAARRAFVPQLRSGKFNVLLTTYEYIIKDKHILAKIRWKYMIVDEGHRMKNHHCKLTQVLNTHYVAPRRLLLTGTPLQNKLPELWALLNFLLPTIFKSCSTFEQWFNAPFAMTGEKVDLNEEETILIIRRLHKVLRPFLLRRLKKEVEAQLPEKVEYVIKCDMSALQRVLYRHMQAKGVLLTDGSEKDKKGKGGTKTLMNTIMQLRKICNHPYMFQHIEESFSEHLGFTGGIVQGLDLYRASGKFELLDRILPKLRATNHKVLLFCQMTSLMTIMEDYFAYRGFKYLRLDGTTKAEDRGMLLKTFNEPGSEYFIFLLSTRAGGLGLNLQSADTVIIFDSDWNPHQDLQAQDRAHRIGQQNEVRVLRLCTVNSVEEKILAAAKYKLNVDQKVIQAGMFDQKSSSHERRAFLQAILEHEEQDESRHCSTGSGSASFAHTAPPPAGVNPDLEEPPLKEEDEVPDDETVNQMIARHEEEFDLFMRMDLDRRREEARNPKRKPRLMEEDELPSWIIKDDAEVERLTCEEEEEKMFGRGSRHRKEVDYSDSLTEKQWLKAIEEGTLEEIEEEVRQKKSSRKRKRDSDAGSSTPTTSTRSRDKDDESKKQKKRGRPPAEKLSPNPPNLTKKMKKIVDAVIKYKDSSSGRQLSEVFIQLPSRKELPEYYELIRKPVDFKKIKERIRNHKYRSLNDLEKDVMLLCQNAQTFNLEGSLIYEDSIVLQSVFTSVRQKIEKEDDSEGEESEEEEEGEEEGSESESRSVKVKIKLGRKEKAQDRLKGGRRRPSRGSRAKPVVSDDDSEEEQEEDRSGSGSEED

Turning to `Cc1ncsc1-c1ccc([C@H](C)NC(=O)[C@@H]2C[C@@H](O)CN2C(=O)[C@@H](c2cc(OCCN3CCC(N4CCC(c5sc6nnc(-c7ccccc7O)cc6c5C)CC4)CC3)no2)C(C)C)cc1` [Compound 107, (2S,4R)-4-hydroxy-1-((R)-2-(3-(2-(4-(3-(2-hydroxyphenyl)-5-methylthieno[2,3-c]pyridazin-6-yl)-[1,4′-bipiperidin]-1′-yl)ethoxy)isoxazol-5-yl)-3-methylbutanoyl)-N-((S)-1-(4-(4-methylthiazol-5-yl)phenyl)ethyl)pyrrolidine-2-carboxamide], in assay [1], the “BRM HiBit Degradation Maximum (%)” value was “A (“A” indicates maximum degradation ≥ 75%)” and the DC50 was ≥ 10 nM. In addition, in assay [2], the Dmax was < 50% and the DC50 was ≥ 1000 nM.
Taken in the same sequence, the figures for `Cc1ncsc1-c1ccc([C@H](C)NC(=O)[C@@H]2C[C@@H](O)CN2C(=O)[C@H](c2cc(C3CCN(C(=O)CN4CC(c5cc6cc(-c7ccccc7O)nnc6s5)C4)CC3)no2)C(C)C)cc1` [Compound 12] were “C (“C” indicates maximum degradation < 50%)”, ≥ 1000 nM, < 50% and ≥ 1000 nM.
For `Cc1ncsc1-c1ccc([C@H](C)NC(=O)[C@@H]2C[C@@H](O)CN2C(=O)[C@@H](c2cc([C@H]3CC[C@@H](N4CCC(c5sc6nnc(-c7ccccc7O)cc6c5C)CC4)CC3)no2)C(C)C)cc1` [Compound 37, (2S,4R)-4-hydroxy-1-((R)-2-(3-((1s,4S)-4-(4-(3-(2-hydroxyphenyl)-5-methylthieno[2,3-c]pyridazin-6-yl)piperidin-1-yl)cyclohexyl)isoxazol-5-yl)-3-methylbutanoyl)-N-((S)-1-(4-(4-methylthiazol-5-yl)phenyl)ethyl)pyrrolidine-2-carboxamide], in assay [1], the “BRM HiBit Degradation Maximum (%)” value was “A (“A” indicates maximum degradation ≥ 75%)” and the DC50 was < 10 nM. In assay [2], the Dmax is < 50% and the DC50 was ≥ 1000 nM.
Taken in the same sequence, the figures for `Cc1ncsc1-c1ccc([C@H](C)NC(=O)[C@@H]2C[C@@H](O)CN2C(=O)[C@@H](c2cc(N3CCC(CN4CC(c5sc6nnc(-c7ccccc7O)cc6c5C)C4)CC3)no2)C(C)C)cc1` [Compound 108, (2S,4R)-4-hydroxy-1-((R)-2-(3-(4-((3-(3-(2-hydroxyphenyl)-5-methylthieno[2,3-c]pyridazin-6-yl)azetidin-1-yl)methyl)piperidin-1-yl)isoxazol-5-yl)-3-methylbutanoyl)-N-((S)-1-(4-(4-methylthiazol-5-yl)phenyl)ethyl)pyrrolidine-2-carboxamide] were “A (“A” indicates maximum degradation ≥ 75%)”, ≥ 10 nM, < 50% and ≥ 1000 nM.
Taken in the same sequence, the figures for `Cc1ncsc1-c1ccc([C@H](C)NC(=O)[C@@H]2C[C@@H](O)CN2C(=O)[C@@H](c2cc(OCCN3CCC(c4c(C)sc5nnc(-c6ccccc6O)cc45)CC3)no2)C(C)C)cc1` [Compound 89, (2S,4R)-4-hydroxy-1-((R)-2-(3-(2-(4-(3-(2-hydroxyphenyl)-6-methylthieno[2,3-c]pyridazin-5-yl)piperidin-1-yl)ethoxy)isoxazol-5-yl)-3-methylbutanoyl)-N-((S)-1-(4-(4-methylthiazol-5-yl)phenyl)ethyl)pyrrolidine-2-carboxamide] were “C (“C” indicates maximum degradation < 50%)”, ≥ 1000 nM, < 50% and ≥ 1000 nM.
In the case of `Cc1ncsc1-c1ccc([C@H](C)NC(=O)[C@@H]2C[C@@H](O)CN2C(=O)[C@@H](c2cc(OCCN3CCC(O)(c4sc5nnc(-c6ccccc6O)cc5c4C)CC3)no2)C(C)C)cc1` [Compound 54, (2S,4R)-4-hydroxy-1-((R)-2-(3-(2-(4-hydroxy-4-(3-(2-hydroxyphenyl)-5-methylthieno[2,3-c]pyridazin-6-yl)piperidin-1-yl)ethoxy)isoxazol-5-yl)-3-methylbutanoyl)-N-((S)-1-(4-(4-methylthiazol-5-yl)phenyl)ethyl)pyrrolidine-2-carboxamide], in assay [1], the “BRM HiBit Degradation Maximum (%)” value is listed as “A (“A” indicates maximum degradation ≥ 75%)” and the DC50 is ≥ 10 nM. Also, in assay [2], the Dmax was < 50% and the DC50 is ≥ 1000 nM.
Taken in the same sequence, the figures for `Cc1ncsc1-c1ccc([C@H](C)NC(=O)[C@@H]2C[C@@H](O)CN2C(=O)[C@@H](c2cc(OCCN3CCC(c4csc5nnc(-c6ccccc6O)cc45)CC3)no2)C(C)C)cc1` [Compound 101, (2S,4R)-4-hydroxy-1-((R)-2-(3-(2-(4-(3-(2-hydroxyphenyl)thieno[2,3-c]pyridazin-5-yl)piperidin-1-yl)ethoxy)isoxazol-5-yl)-3-methylbutanoyl)-N-((S)-1-(4-(4-methylthiazol-5-yl)phenyl)ethyl)pyrrolidine-2-carboxamide] were “C (“C” indicates maximum degradation < 50%)”, ≥ 1000 nM, < 50% and ≥ 1000 nM.
Taken in the same sequence, the figures for `Cc1ncsc1-c1ccc([C@H](C)NC(=O)[C@@H]2C[C@@H](O)CN2C(=O)[C@@H](c2cc(N3CCC(CN4CCc5sc6nnc(-c7ccccc7O)cc6c5C4)CC3)no2)C(C)C)cc1` [Compound 92, (2S,4R)-4-hydroxy-1-((R)-2-(3-(4-((3-(2-hydroxyphenyl)-7,8-dihydropyrido[3′,4′:4,5]thieno[2,3-c]pyridazin-6(5H)-yl)methyl)piperidin-1-yl)isoxazol-5-yl)-3-methylbutanoyl)-N-((S)-1-(4-(4-methylthiazol-5-yl)phenyl)ethyl)pyrrolidine-2-carboxamide] were “C (“C” indicates maximum degradation < 50%)”, ≥ 1000 nM, ≥ 50% and ≥ 1000 nM.
In the case of `Cc1ncsc1-c1ccc([C@H](C)NC(=O)[C@@H]2C[C@@H](O)CN2C(=O)[C@@H](c2cc(N3CCC(N4CCC(c5cc6nnc(-c7ccccc7O)cc6s5)CC4)CC3)no2)C(C)C)cc1` [Compound 87, (2S,4R)-4-hydroxy-1-((R)-2-(3-(4-(3-(2-hydroxyphenyl)thieno[3,2-c]pyridazin-6-yl)-[1,4′-bipiperidin]-1′-yl)isoxazol-5-yl)-3-methylbutanoyl)-N-((S)-1-(4-(4-methylthiazol-5-yl)phenyl)ethyl)pyrrolidine-2-carboxamide], in assay [1], the “BRM HiBit Degradation Maximum (%)” value is “A (“A” indicates maximum degradation ≥ 75%)” and the DC50 is < 10 nM. In assay [2], the Dmax is < 50% and the DC50 was ≥ 1000 nM.
For `Cc1ncsc1-c1ccc(CNC(=O)[C@@H]2C[C@@H](O)CN2C(=O)[C@@H](NC(=O)CCN2CC(c3cc4cc(-c5ccccc5O)nnc4s3)C2)C(C)(C)C)cc1` [Compound 26], in assay [1], the “BRM HiBit Degradation Maximum (%)” value is recorded as “C (“C” indicates maximum degradation < 50%)” and the DC50 was ≥ 1000 nM. Also, in assay [2], the Dmax is < 50% and the DC50 is ≥ 1000 nM.
